This is an account of results in patent US4309425A (priority 1980, dated 1982).

The test system of one experiment is two-spotted mites. The experiment can be described thus: two-spotted mites on bean plants, spray, mortality after two days. In kind it is in vivo. Conditions: Tetranychus urticae, 48 h, read-out: % Mortality (2 days). As for the experimental part:
Mortality was evaluated two days after spraying.
Mortality after two days is set forth below.

The subject of experiment [1] is Venturia inaequalis. In words: apple scab preventive test. The format is in vivo. Conditions: 10-12 days. As for the experimental part:
(§1) Compounds of this invention are dissolved in acetone in an amount equal to 6% of the final volume and then suspended at a concentration of 20 ppm in purified water containing 25 ppm of the surfactant Alkanol® XC (sodium alkyl naphthalene sulfonate). This suspension is sprayed to the point of run-off on apple seedlings. The following day, the plants are inoculated with a spore suspension of the fungus Venturia inaequalis and incubated in a growth room for 10-12 days. Disease ratings are then made. […] Phytotoxicity in the form of foliar burn was observed on some of the plants in association with disease control.

The test system of experiment [2] is Venturia inaequalis. In words: apple scab residual wash-off test. Conditions: 1/2 inch simulated rainfall, 10-12 days. The format is in vivo. As for the experimental part: as §1, with “day, 1/2 inch of simulated rainfall is applied to the foliage of the plants. When the foliage is dry,” for “day,”, “on” for “on some of”
For experiment [3], the system named is Venturia inaequalis. In words: apple scab photostability test. The format is in vivo. To be noted: xenon arc 3500 foot candles 16 hours, 10-12 days. As for the experimental part: as §1, with “seedlings. When the foliage is dry, the plants are exposed to 3500 foot candles of light from a xenon arc source for a period of 16 hours. This light source approximates the spectrum of natural sunlight, and is used to assess photostability of the compounds of this invention on plant foliage.” for “seedlings.”

In experiment [4] the test system is Erysiphe cichoracearum. The experiment can be described thus: cucumber powdery mildew preventive test. The format is in vivo. To be noted: Golovinomyces cichoracearum, 168 h, 7 days. As for the experimental part: as §1, with “cucumber” for “apple”, “Erysiphe cichoracearum” for “Venturia inaequalis”, “7” for “10-12”, “burn or growth reduction” for “burn”
The next experiment deals with Erisyphe cichoracearum. The experiment can be described thus: cucumber powdery mildew curative test. In kind it is in vivo. Conditions: Cucumis sativus, 144 h, sprayed day after inoculation, additional 6 days. The source says: Cucumber plants are inoculated with a spore suspension of the fungus Erisyphe cichoracearum and in a growth room overnight. The following day, the plants are sprayed to the point of run-off with a suspension prepared by dissolving compounds of this invention in acetone in an amount equal to 6% of the final volume and then suspended at a concentration of 20 ppm in purified water containing 25 ppm of the surfactant Alkanol® XC (sodium alkyl naphthalene sulfonate). Plants are returned to the growth room for an additional 6 days when disease ratings are then made. […] Phytotoxicity in the form of foliar burn or growth reduction was observed on some of the plants in association with disease control.

The test system of experiment [5] is Erysiphe cichoracearum. The experiment can be described thus: cucumber powdery mildew residual wash-off test. The format is in vivo. To be noted: Golovinomyces cichoracearum, 168 h, 1/2 inch simulated rainfall, 7 days. As for the experimental part:
Compounds of this invention are dissolved in acetone in an amount equal to 6% of the final volume and then suspended at a concentration of 20 ppm in purified water containing 25 ppm of the surfactant Alkanol® XC (sodium alkyl naphthalene sulfonate). This suspension is sprayed to the point of run-off on cucumber seedlings. The following day, 1/2 inch of simulated rainfall is applied to the foliage of the plants. When the foliage is dry, the plants are inoculated with a spore suspension on the fungus Erysiphe cichoracearum and incubated in a growth room for 7 days. Disease ratings are then made.

The test system of experiment [6] is Erysiphe cichoracearum. In words: cucumber powdery mildew photostability test. Conditions: Golovinomyces cichoracearum, 168 h, xenon arc 3500 foot candles 16 hours, 7 days. The format is in vivo. As for the experimental part: Compounds of this invention are dissolved in acetone in an amount equal to 6% of the final volume and then suspended at a concentration of 20 ppm in purified water containing 25 ppm of the surfactant Alkanol® XC (sodium alkyl naphthalene sulfonate). This suspension is sprayed to the point of run-off in cucumber seedlings. When the foliage is dry, the plants are exposed to 3500 foot candles of light from a xenon arc source for a period of 16 hours. This light source approximates the spectrum of natural sunlight, and is used to assess photostability of the compounds of this invention on plant foliage. The following day, the plants are inoculated with a spore suspension of the fungus Erysiphe cichoracearum and incubated in a growth room for 7 days. Disease ratings are then made.

The test system of experiment [7] is Puccinia graminis var. tritici. The experiment can be described thus: whole plant or invertebrate. The format is in vivo. To be noted: 192 h, read-out: % control wheat rust in preventive test.
Experiment [8] has as its system Puccinia graminis var. tritici. The experiment can be described thus: whole plant or invertebrate. The format is in vivo. To be noted: 192 h, read-out: % control wheat rust in residual wash-off test.
The test system of experiment [9] is Puccinia graminis var. tritici. In words: whole plant or invertebrate. The format is in vivo. Conditions: 192 h, read-out: % control wheat rust in a photostability test.
Experiment [10] has as its system Phytophthora infestans. In words: whole plant or invertebrate. In kind it is in vivo. Conditions: in Solanum lycopersicum, 96 h, read-out: % control tomato late blight in a residual wash-off test.
Experiment [11] deals with Phytophthora infestans. The experiment can be described thus: whole plant or invertebrate. To be noted: in Solanum lycopersicum, 96 h, read-out: % control tomato late blight in a photostability test. In kind it is in vivo.
The subject of a further experiment is Rhizopus. In words: Rhizopus-corn meal mixture overspray test. Conditions: 168 h, read-out: % control Rhizopus. As for the experimental part: Compounds of this invention were dissolved in acetone in an amount equal to 6% of final volume and then suspended at a concentration of 100 ppm in purified water containing 500 ppm of the surfactant Alkanol® XC (sodium alkyl naphthalene sulfonate). This solution was oversprayed on a Rhizopus-corn meal mixture in 6 cm aluminum cups. The sprayed plates were placed in a closed plastic bag, stored at 20° C. for 7 days, and then rated.
The untreated cups were completely covered with Rhizopus mycelial growth, but the treated cups were mostly free of growth by this disease-causing organism.

For the next experiment, the system named is Sclerotinia sclerotiorum. In words: white mold on carrot sections dip test. Conditions: 100 ppm dip, 20° C., six days. As for the experimental part:
Surface-sterilized carrot sections were dipped two minutes in a 100 ppm solution of the compounds of this invention. Additional sections were dipped in a check solution which contained 500 ppm Alkanol® XC (sodium alkyl naphthalene sulfonate). After inoculation by placing a mycelial plug of Sclerotinia sclerotiorum on each carrot section, the test was held at 20° C. for six days.
The untreated carrot sections were completely invaded with the mycelial growth of white mold fungus, but the treated sections had little or no growth by this disease causing organism.

The test system of experiment [12] is organo-phosphorous resistant two-spotted spider mites. The experiment can be described thus: organo-phosphorous resistant two-spotted spider mites on bean plants, spray, mortality after two days. To be noted: Tetranychus urticae, 48 h, read-out: % Mortality (2 days).
Another experiment relates to Pythium. In words: Pythium infested soil test, cotton. In kind it is in vivo. To be noted: 1.5 kg/ha, 8 days. The source says: Pythium infested soil was placed in a 900 cc cup. Compounds of this invention were mixed at a rate of 1.5 kg/ha in a section 2" wide×2" deep×4" long to simulate an in-the-row application. Five cotton seeds were planted in the treated soil. After 8 days, the cotton plants were removed and rated for disease control.

Another experiment has as its system Rhizoctonia solani. The experiment can be described thus: Rhizoctonia solani infested soil test, cotton. The format is in vivo. To be noted: 192 h, 1.5 kg/ha, 8 days. The text has this: Rhizoctonia solani-infested soil was placed in a 900 cc cup. Compounds of this invention were mixed at a rate of 1.5 kg/ha in a section 2" wide×2" deep×4" long to simulate an in-the-row application. Five cotton seeds were planted in the treated soil. After 8 days, the cotton plants were removed and rated for disease control.

Experiment [13] concerns Phytophthora infestans. In kind it is in vivo. Conditions: 20 ppm, 4 days.
The test system of experiment [14] is Eggs of the beet armyworm (Spodoptera exigua). The experiment can be described thus: beet armyworm egg (ovicidal) test, % eggs failing to hatch. To be noted: 72 h, 200 ppm in acetone, three days, read-out: % Control (% eggs failing to hatch). The format is in vivo. As for the experimental part: Eggs of the beet armyworm (Spodoptera exigua), laid on cellophane discs each containing 50-75 eggs, were placed in petri dishes and lightly sprayed with 1% concentrations of the indicated compounds in acetone solution. Three days later, percent control (% eggs failing to hatch) was determined.
Eggs of the beet armyworm (Spodoptera exigua), laid on cellophane discs each containing 50-75 eggs, were placed in petri dishes and lightly sprayed with 200 ppm concentration of the indicated compounds in acetone solution. Three days later, percent control (% eggs failing to hatch) was determined.

Experiment [15] relates to adult cotton boll weevils (Anthonomus grandis). In words: adult cotton boll weevils spray test. In kind it is in vivo. Conditions: 1% acetone solution, 24 hours. As for the experimental part: Five adult cotton boll weevils (Anthonomus grandis) were confined in a 4-oz. wide mouth jar. These were sprayed with a 1% acetone solution of the indicated compounds. Percent mortality after 24 hours is set forth below.

In the next experiment the test system is adult houseflies. The experiment can be described thus: adult houseflies spray test. In kind it is in vivo, housefly. To be noted: Musca domestica; 1% acetone solutions, 24 hours. The source says: Twenty adult houseflies were confined in each of several cylindrical stainless steel cages (7.5 cm D×4 cm high) with wire screens of the ends. These were sprayed with 1% acetone solutions of the indicated compounds.

The test system of experiment [16] is red-legged grasshoppers (Melanoplus femurrubrum). In words: red-legged grasshoppers spray test. In kind it is in vivo. Conditions: 10 ppm in acetone, 48 hours. As for the experimental part: Five red-legged grasshoppers (Melanoplus femurrubrum) were confined in each of several cylindrical stainless steel cages (7.5 cm D×4 cm high) with wire screens at the end. These were sprayed with 10 ppm concentration of the indicated compounds in acetone solution. Percent mortality after 48 hours is recorded below.

For experiment [17], the system named is brown dog ticks (Rhipicephalus sanguineus). In words: brown dog ticks spray test. In kind it is in vivo. To be noted: 48 h, 12.5 ppm in acetone, forty eight hours. As for the experimental part: Four-ounce wide mouth jars, each containing 10 brown dog ticks (Rhipicephalus sanguineus), were sprayed with 12.5 ppm concentration of the indicated compounds in acetone solution. The ticks were confined with caps which were also sprayed. Forty eight hours later, percent mortality was determined.

The structures appear in SMILES notation. Like-named read-outs stand apart in the source and are kept apart here.

As to `Cc1ccc(S(=O)(=O)N(SN(c2cc(C(F)(F)F)ccc2Cl)c2c([N+](=O)[O-])cc([N+](=O)[O-])cc2C(F)(F)F)C(C)C)cc1`, in the experiment with two-spotted mites (spray concentration .00025%), the mortality at 0.00025 % came to 100%. The values for the mortality at 0.0005 % (in the experiment with two-spotted mites (spray concentration .0005%); in experiment [12]) were 100% and 83%, respectively. In addition, the mortality at 0.001 % with two-spotted mites (spray concentration .001%) stood at 100%; in [12], 99%. Also, the pest or weed control at 20 ppm with Venturia inaequalis [1] was 100%; with Venturia inaequalis [2], 100%; with Venturia inaequalis [3], 0%; with Erysiphe cichoracearum [4], 100%; with Erisyphe cichoracearum, 90%; with Erysiphe cichoracearum [5] it was 99%. Besides, the pest or weed control at 20 ppm in the experiment on Erysiphe cichoracearum [6] was found to be 40%; in experiment [7] it was 100%; in experiment [8], 97%; in experiment [9], 80%; in the experiment on Phytophthora infestans [10] it was 100%; in the experiment on Phytophthora infestans [11] it was 90%. Besides, the inhibition of growth at 100 ppm with Rhizopus was found to be 100%. Also, in the experiment on Sclerotinia sclerotiorum, the “% control White Mold” value worked out at 100%. Further, in experiment [12], the mortality at 0.002 % is 99%.
Regarding `Cc1ccc(S(=O)(=O)N(C)SN(c2c(F)cc(F)cc2F)c2c([N+](=O)[O-])cc([N+](=O)[O-])cc2C(F)(F)F)cc1`, the “% control Pythium” value with Pythium turned out to be 100%. Also, the pest or weed control at 1500 g/ha in the experiment with Rhizoctonia solani came to 70%. The pest or weed control at 20 ppm with Venturia inaequalis [1] was 100%; in the experiment with Venturia inaequalis [2] it was 100%; in the experiment with Venturia inaequalis [3], 80%; in the experiment with Erysiphe cichoracearum [4] it was 100%; in the experiment on Erisyphe cichoracearum, 99%; with Erysiphe cichoracearum [5] it was 100%. In addition, the pest or weed control at 20 ppm in the experiment on Erysiphe cichoracearum [6] was determined as 100%; in experiment [7], 100%; in experiment [8] it was 97%; in [9], 70%; in the experiment with Phytophthora infestans [10], 100%; with Phytophthora infestans [11], 100%. Moreover, the “% control tomato late blight in a preventive test” value with Phytophthora infestans [13] turned out to be 100%.
For `CCCCN(SN(c1cc(C(F)(F)F)ccc1Cl)c1c([N+](=O)[O-])cc([N+](=O)[O-])cc1C(F)(F)F)S(=O)(=O)c1ccccc1`, the mortality at 200 ppm in experiment [14] was determined as 100%. Besides, the mortality at 1 % (in experiment [15]; in the experiment on adult houseflies) was 100% in each case. The mortality at 10 ppm in experiment [16] came to 100%. The mortality at 12.5 ppm in [17] was determined as 100%. The pest or weed control at 20 ppm in the experiment with Venturia inaequalis [1] was 100%; with Venturia inaequalis [2], 100%; in the experiment on Venturia inaequalis [3], 0%; in the experiment on Erysiphe cichoracearum [4], 100%; in the experiment on Erisyphe cichoracearum, 50%; in the experiment with Erysiphe cichoracearum [5], 98%. Further, the pest or weed control at 20 ppm with Erysiphe cichoracearum [6] stood at 0%; in [7], 100%; in experiment [8], 97%; in experiment [9], 90%; in the experiment on Phytophthora infestans [10], 100%; with Phytophthora infestans [11] it was 90%. In addition, the “% control White Mold” value in the experiment with Sclerotinia sclerotiorum stood at 86%.
